Experimental data reported in patent US5053416A, “Derivatives of 1,2,5,6-tetrahydropyridine substituted by a thiazolyl or oxazolyl radical, their use as medicaments and compositions containing them” (Roussel Uclaf, priority 1988, dated 1991).
Like-named read-outs stand apart in the source and are kept apart here.

Tests used:
[1] = tested on: isolated ileum of a guinea-pig; assay: Test on the isolated ileum of a guinea-pig (contraction, agonist activity); conditions: Cavia porcellus, read-out: pD2 (converted)
Experimental: Fragments of the ileum of guinea-pigs killed by decapitation are removed. […] The contractions caused by the products are recorded using a sensor connected to a polygraph. The products under test are added, at concentrations comprised between 1.10^-3 M and 1.10^-8 M/l.
The products presenting a contracting effect are tested vis-a-vis atropine and hexamethonium to establish if the activity is of "muscarinic" or "nicotinic" type.
The possible antagonist activity of the products is tested vis-a-vis acetylcholine.
The agonist activity is expressed in pD2 (negative logarithm of the dose which produces 50% of the maximum effect).

[2] = tested on: male mice (CD1 Charles Rivers); assay: Diarrhoeic activity, oral; conditions: for ED50: Mus musculus, po, read-out: DE50
Experimental: The test is carried out on male mice (CD1 Charles Rivers) weighing 25 to 30 g, without food for 6 hours. The product at 5% in methocel is administered by oral route, by means of an oesophagus probe.
Control animals receive only the excipient.
The sheets of absorbent paper are changed after each observation.
1: slightly soft faeces with or without moist circle,
2: slightly soft faeces with presence of a well-defined moist circle,
3: soft faeces with presence of a large moist circle,
4: faeces without consistency with presence of a very large moist circle.

[3] = tested on: male mice (CD1 Charles Rivers); assay: Hypothermic activity (rectal body temperature); format: in vivo; conditions: Mus musculus; for ED (1 C fall in body temperature): sc, read-out: Effective dose (-1° C.) SC.R.; for ED (-1 C): read-out: Effective dose (-1° C.) O.R.
Experimental: The test is carried out on male mice (CD1 Charles Rivers) weighing 25 to 30 g, without food for 6 hours.
The body temperature is noted by means of a thermocouple placed about 1.5 cm inside the rectum and connected to an electric temperature recorder.
The products are administered by oral or sub-cutaneous route and the temperatures are noted at 0 and 30 minutes, one hour, 2 hours and 2 hours 30 minutes after treatment.
The degree of hypothermia is evaluated as the difference between the treated animals and the controls and the dose necessary to reduce the body temperature by 1° C. is determined.

[4] = in vivo; conditions: mouse, male mice, oral route, mortality during 7 days following treatment
Experimental: The test is carried out on male mice (CD1 Charles Rivers) of 22 to 24 g, without food for 16 hours. […] The mortality is noted during the 7 days following treatment.

[5] = negative logarithm of the dose which produces 50% of the maximum effect, Tyrode's solution at 37° C.
[6] = sub-cutaneous route, dose necessary to reduce the body temperature by 1° C.
[7] = oral route, dose necessary to reduce the body temperature by 1° C.

In the case of `Cc1coc(C2=CCCNC2)n1.Cl` [Example 2, 3-(4-methyloxazol-2-yl)-1,2,5,6-tetrahydropyridine hydrochloride], the EC50 [1, 5] is reported as 1.07 µM, the ED50 [2] is reported as 3 mg/kg and the ED (1 C fall in body temperature) [3, 6] is reported as 1.7 mg/kg. The ED (-1 C) [3, 7] was 2.6 mg/kg and the LD50 at 168 h [4] was 125 mg/kg.
`COC(=O)C1=CCCN(C)C1` [Aerocoline, HBr, reference compound] showed an EC50 [1] of 0.331 µM, a DE50 ([2]; male mice, oral route, dose which causes diarrhoea in 50% of the animals) of 35 mg/kg and an ED (-1 C) ([3]; po) of 194 mg/kg. It also gave an ED (1 C fall in body temperature) [3] of 3 mg/kg.
With `C1=C(c2ncco2)CNCC1.Cl` [Example 6, 3-(oxazol-2-yl)-1,2,5,6-tetrahydropyridine hydrochloride] the EC50 [1, 5] was 1.95 µM, the ED50 [2] was 15 mg/kg and the ED (1 C fall in body temperature) [3, 6] was 3.2 mg/kg. The ED (-1 C) [3, 7] was 3.2 mg/kg and the LD50 at 168 h [4] was 200 mg/kg.
For `Cc1cnc(C2=CCCNC2)o1.Cl` [Example 8, 3-(5-methyloxazol-2-yl)-1,2,5,6-tetrahydropyridine hydrochloride], the EC50 [1, 5] was 5.89 µM, the ED (1 C fall in body temperature) [3, 6] was 25 mg/kg and the ED (-1 C) [3, 7] was 24 mg/kg. The LD50 at 168 h [4] was 500 mg/kg.
For `ON1CCC=C(c2ncco2)C1` [Example 10, 1-hydroxy-3-(oxazol-2-yl)-1,2,5,6-tetrahydropyridine], the EC50 [1, 5] was > 100 µM, the ED50 [2] was 10 mg/kg and the ED (1 C fall in body temperature) [3, 6] was 4.1 mg/kg. It also gave an ED (-1 C) [3, 7] of 4.2 mg/kg and an LD50 at 168 h [4] of 300 mg/kg.
